Literature values, collected in US20030083520A1, “Process for preparing bicyclic amino acid” (Pfizer Inc., priority 2001, published 2003).

test system: α2δ subunit derived from porcine brain tissue; conditions: [3H]gabapentin radioligand

Compared with NC[C@]1(CC(=O)O)C[C@H]2CC[C@H]2C1 [(1α,3α,5α)(3-aminomethyl-bicyclo[3.2.0]hept-3-yl)-acetic acid], NCC1(CC(=O)O)C[C@H]2CC[C@@H]2C1 (racemic) [(+/−)-(1α,5β)(3-Aminomethyl-bicyclo[3.2.0]hept-3-yl)-acetic acid] is 75-fold higher in α2δ binding affinity: 0.038 µM for the first, 2.86 µM for the second.

In the case of NC[C@@]1(CC(=O)O)C[C@H]2CC[C@H]2C1 [(1α,3β,5α)(3-Aminomethyl-bicyclo[3.2.0]hept-3-yl)-acetic acid], the α2δ binding affinity is listed as 0.332 µM.
